Data set [1] can be described thus: Cyclic voltammetry of iron solutions.
Data set [2] has as its system triple negative human breast cancer cells and circulating tumor cells (CTC) from patients with colorectal cancer. Kind of data set: Cell viability (CellTiter-Blue), dose response of cancer cells, FIG. 1B. The data set is classed as cell-based. The settings on record: 72 h, cell line not named. As to the method:
(§1) FIG. 1. […] (FIG. 1B) Dose response viability curves of cancer cells treated as indicated for 72 h. […] (FIG. 1D) Dose response viability curves of HMLER cells in epithelial and mesenchymal states treated as indicated for 72 h. Data points and error bars, mean values and s.d. of three independent biological replicates.
(§2) Cell culture. Dulbecco's Phosphate-Buffered Saline (14190-094, 500 mL, Gibco), Dulbecco's Modified Eagle Medium (DMEM)/F12 (31331-028, 500 mL, Gibco), DMEM GlutaMAX™ (61965059, Thermo Fisher Scientific), Fetal Bovine Serum (FBS, 10270-106, Gibco), Hydrocortisone (H0888, Sigma Aldrich), Insulin (I0516 or I9278, Sigma Aldrich), PEN-STREP (DE17-602E, BioWhittaker, Lonza), Puromycin dihydrochloride (A11138-02, Life Technologies). MCF-7 (ATCC®, HTB-22™), MDA-MB-231 (ATCC®, HTB-26™), MDA-MB-468 (ATCC®, HTB-132™) and circulating tumor cells were grown in DMEM supplemented with 10% FBS and 1% penicillin (100 U/mL), streptomycin (100 μg/mL) and incubated at 37° C. with 5% CO2. To induce EMT, cells were treated with epidermal growth factor EGF (100 ng/ml) (Miltenyi Biotec) for 72 h. The human mammary epithelial cell line infected with a retrovirus carrying hTERT, SV40 and the oncogenic allele HrasV12, named HMLER cells were a generous gift from A. Puisieux. HMLER cells were cultured in DMEM/F12 supplemented with 10% FBS, 10 μg/mL insulin, 0.5 μg/mL hydrocortisone, 10 ng/ml hEGF, and 0.5 μg/mL puromycin. A mycoplasma test was performed using PCR mycoplasma detection kit (G238, Applied Biological Materials).
(§3) Cell viability. Cell viability was carried out by plating 1000 cells/well in 96-well plates using CellTiter-Blue® viability assay according to the manufacturer's protocol. Cells were treated as indicated for 72 h. CellTiter-Blue® reagent (G8081, Promega) was added after 72 h treatment and cells were incubated for 1-2 h before recording fluorescence intensities (ex. 560/20 nm; em. 590/10 nm) using a Perkin Elmer Wallac 1420 Victor2 Microplate Reader.

In data set [3] the test system is MDA-MB-468 cells. In words: Mitochondrial membrane potential (MitoProbe JC-1). The data set is classed as cell-based, human. As to the method: Mitochondrial membrane potential. Measurements were performed using the MitoProbe™ JC-1 assay kit (M34152, Thermo Fischer Scientific) according to the manufacturer's protocol. In brief, cells were treated with 2 μM JC-1 or CCCP ([…]) control for the indicated time.

Data set [4] concerns MDA-MB-468 cells. In words: Mitochondrial copper(II) levels, turn-off fluorescent probe (microscopy, flow cytometry). The data set is classed as cell-based, human. The settings on record: 48 h, reduction in fluorescence, metformin 12 mM, metforminyn 2 mM unless stated otherwise. Here is the method: FIG. 2. […] Scale bar, 10 μm. […] Scale bar, 10 μm.
(§4) Flow cytometry. Metal-specific probes were synthesized as previously described.
Copper and iron levels. Cells were incubated with the relevant probes as described in Reagents section. Cells were then analyzed either by fluorescence microscopy or flow cytometry as described in Cell Imaging and Flow Cytometry sections.

Data set [5] deals with MDA-MB-468 cells. In words: EGF-induced epithelial-to-mesenchymal transition (E-cadherin/phalloidin imaging, Western blot of markers, CD44/CD24 flow cytometry). The data set is classed as cell-based, human. To be noted: 72 h; E-cadherin, phalloidin, fibronectin, vimentin, Zeb1, Snail, Slug, CD44high/CD24low proportion. As to the method: as §2
Western blotting. […] Extracts were incubated at 37° C. for 1 h.
as §4

The subject of data set [6] is MDA-MB-468 triple negative breast cancer cells. Kind of data set: Cell viability (CellTiter-Blue), epithelial and mesenchymal (EGF-induced) states, FIG. 1C. The data set is classed as cell-based, human. The settings on record: MDA-MB-468 epithelial/mesenchymal (EGF) states, condition not named. As to the method:
as §1, §2, §3

Data set [7] concerns MDA-MB-468 cells. In words: Mitochondrial ROS levels (MitoSOX Red, flow cytometry). The data set is classed as cell-based, human. As to the method: ROS levels. Mitochondrial ROS was measured using MitoSOX™ Red Mitochondrial Superoxide Indicator (M36008, Thermo Fisher Scientific) according to the manufacturer's protocol.
The subject of data set [8] is MDA-MB-468 cells. Kind of data set: Mitochondrial morphology. The data set is classed as cell-based, human.
Data set [9] relates to MDA-MB-468 cells. Kind of data set: Cell death (Annexin V-FITC/PI) with cell death inhibitors. The data set is classed as cell-based, human. To be noted: Z-VAD-FMK 50 μM, ferrostatin-1 10 μM, necrostatin-1 20 μM, 72 h; not rescued by ferrostatin-1 and necrostatin-1.
Description: Cell death. […] Data were analyzed by a LSRFortessaTM flow cytometer (BD Biosciences, San Jose, CA) and processed using Cell Quest (BD Biosciences) and FlowJo (FLOWJO, LLC) software.
Data set [10] can be described thus: Cyclic voltammetry of a copper(I) solution. The settings on record: metformin 2 mol equiv, quasi-reversible couples.
Description: Cyclic voltammetry. Cyclic voltammetry experiments were performed with a three-electrode cell under argon. Saturated Calomel Electrode (SCE) was used as reference, a steady Glassy Carbon (GC) electrode of diameter 3 mm was selected as working electrode and a Platinum wire as counterelectrode. All cyclic voltammograms were recorded at RT with a μ-autolab III from Metrohm using Nova software with a scan rate of 0.5 V/s. MeCN was used as a degassed HPLC grade from Carlo Erba. Water was mQ H2O. Solutions with copper were prepared with 0.3 M nBu4NBF4 (180 mg) in MeCN (1.8 mL) and 200 μl of a 20 mM Cu(MeCN)4PF6 stock solution in MeCN (7.4 mg/mL).

The results in this text go back to patent US12415781B2, “Compounds with biguanidyl radical and uses thereof” (INSTITUT CURIE, priority 2018, dated 2025).

Structures can show the parent of a compound that is named as a salt.

As for `CN(C)C(=N)NC(=N)N` [metformin, 1,1-Dimethylbiguanide hydrochloride], the “redox properties of iron (cyclic voltammetry)” value in [1] is recorded as “altered the redox properties of this metal”. For the same molecule, the IC50 was 12.1 mM in data set [2] (Homo sapiens, 1st of four values listed 'respectively'); 15.1 mM in data set [2] (Homo sapiens, 2nd of four values listed 'respectively'); 7.7 mM in data set [2] (Homo sapiens, 3rd of four values listed 'respectively'); 10.9 mM in data set [2] (Homo sapiens, 4th of four values listed 'respectively'); 24.3 mM in data set [6] (Homo sapiens, MDA-MB-468, 72 h, 1st of four values listed); 12.1 mM in [6] (Homo sapiens, MDA-MB-468, 72 h, 2nd of four values listed). In addition, the half-inhibitory concentration (IC50) stood at 5.5 mM in data set [6] (Homo sapiens, MDA-MB-468, 72 h, 3rd of four values listed) and 2.3 mM in [6] (Homo sapiens, MDA-MB-468, 72 h, 4th of four values listed). Moreover, in [3], the mitochondrial membrane potential entry is on record as “reduction of mitochondrial membrane potentials”. Further, the “mitochondrial levels of copper(II)” value in data set [4] is “increased levels of copper(II)”. The “induction of EMT using EGF” value in data set [5] was “prevented”. The “mitochondrial reactive oxygen species (ROS) levels” value in data set [7] is “increased levels of reactive oxygen species (ROS)”. Besides, in data set [8], the mitochondrial morphology result was “alteration of mitochondrial morphology”. The “rescue of compound-induced cell death by inhibitors” value in [9] is “rescued by the caspase 3 inhibitor Z-VAD-FMK”. Also, the “redox properties of copper (cyclic voltammetry)” value in [10] was “altered the redox properties of copper”.

In the case of `C#CCCN(C)C(=N)NC(=N)N` [metforminyn], the 50% inhibitory concentration (IC50) in data set [2] (1st of four values listed 'respectively') came out at 2.5 mM; in data set [2] (2nd of four values listed 'respectively') it was 4.7 mM; in [2] (3rd of four values listed 'respectively'), 2.8 mM; in data set [2] (4th of four values listed 'respectively'), 3.5 mM; in data set [6] (72 h, 1st of four values listed) it was 12.6 mM; in [6] (72 h, 2nd of four values listed), 5.2 mM. Moreover, the 50% inhibitory concentration (IC50) in data set [6] (72 h, 3rd of four values listed) is 0.8 mM; in [6] (72 h, 4th of four values listed), 0.9 mM. Moreover, in [3], the mitochondrial membrane potential result is reported as “reduction of mitochondrial membrane potentials”. Also, in data set [4], the “mitochondrial levels of copper(II)” value is “increased levels of copper(II)”. In data set [5], the “induction of EMT using EGF” value is listed as “prevented”. In addition, the “mitochondrial reactive oxygen species (ROS) levels” value in [7] is recorded as “increased levels of reactive oxygen species (ROS)”. Also, the mitochondrial morphology entry in [8] was “alteration of mitochondrial morphology”. In [9], the “rescue of compound-induced cell death by inhibitors” value is given as “rescued by the caspase 3 inhibitor Z-VAD-FMK”.
